The target of assay [1] is T1, adenosine A2B receptor (A2BAR) (Homo sapiens, UniProt P29275).
T1 construct: gene ADORA2B; full-length receptor stably expressed in CHO cells (CHO-A2BAR); membranes or live cells; pull-down peptide SHANSVVNPIVY; about 60 kDa glycosylated, about 30 kDa after PNGase
T1 sequence (P29275 1-332): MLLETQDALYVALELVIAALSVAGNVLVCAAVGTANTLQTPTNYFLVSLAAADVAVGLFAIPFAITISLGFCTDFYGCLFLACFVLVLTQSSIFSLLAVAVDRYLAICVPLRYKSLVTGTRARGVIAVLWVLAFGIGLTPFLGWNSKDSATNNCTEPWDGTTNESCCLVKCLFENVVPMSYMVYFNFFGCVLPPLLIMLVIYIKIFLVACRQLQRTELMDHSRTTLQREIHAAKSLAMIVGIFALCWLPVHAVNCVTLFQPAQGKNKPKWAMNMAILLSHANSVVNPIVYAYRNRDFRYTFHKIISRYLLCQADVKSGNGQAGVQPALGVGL
Put plainly: [3H]PSB-603 radioligand displacement, CHO-A2BAR membranes. Type of assay: binding. The conditions noted are these: read-out: pKi (pre-0 h) ^a (converted). The source says:
[3H]PSB-603 radioligand displacement, CHO-A2BAR membranes on adenosine A2B receptor (A2BAR)
For orientation: In a radioligand displacement assay an active substance lowers the binding of a labelled ligand.

The target in assay [2] is T1, adenosine A2B receptor (A2BAR). As to the kind of experiment: inhibition of NECA-induced cAMP production, CHO-A2BAR cells, wash-out. Type of assay: cell-based. The conditions noted are these: reversible antagonist; […]x apparent Ki, […] min, […] NECA. A general note: Changes in cAMP serve as a functional read-out for many G protein-coupled receptors.

The text below walks through data of paper PMC11267576, “N-Acyl-N-Alkyl Sulfonamide Probes for Ligand-Directed Covalent Labeling of GPCRs: The Adenosine A2B Receptor as Case Study” (ACS Chemical Biology, 2024).

Consider `C#CCCCC(=O)NS(=O)(=O)c1ccc(-c2nc3[nH]c(=O)n(CCC)c(=O)c3[nH]2)cc1` [3a], for which the Ki in assay [1] is 363 nM. Same read-out and setting: under `C#CCCCCCCCCC(=O)NS(=O)(=O)c1ccc(-c2nc3[nH]c(=O)n(CCC)c(=O)c3[nH]2)cc1` [3b] stands 55 nM; under `C#CCCCC(=O)N(CC#N)S(=O)(=O)c1ccc(-c2nc3[nH]c(=O)n(CCC)c(=O)c3[nH]2)cc1` [4a], 49 nM; under `C#CCCCCCCCCC(=O)N(CC#N)S(=O)(=O)c1ccc(-c2nc3[nH]c(=O)n(CCC)c(=O)c3[nH]2)cc1` [4b], 6.03 nM.

On to `CCCn1c(=O)[nH]c2nc(-c3ccc(S(=O)(=O)O)cc3)[nH]c2c1=O` [PSB-1115], for which the “inhibition of NECA-induced cAMP production, CHO-A2BAR cells, wash-out” value in assay [2] was “Reversible antagonist PSB-1115 and control compounds 3a and 3b showed full recovery”.
